Experimental data taken from publication PMC4113814, “Bioactive Cembrane Derivatives from the Indian Ocean Soft Coral, Sinularia kavarattiensis” (Marine Drugs, 2014).
In brackets after ≈: the same amount, converted by molar mass.

Key:
Format in all cases: cell-based, Wistar rats
[1] = MTT cytotoxicity assay on primary microglial cell cultures; details: Wistar, rat, mean of triplicate
Procedure: (§1) Primary microglial cell cultures were prepared from brains of newborn Wistar rats. Ethics approval for the experiments was granted by the EBIOTEC Review Board (Valter Lombardi, Iván Carrera and Lucía Fernández-Novoa; Project Identification Code: Sinularia Project October 2013; approved 30 October 2013). The neocortex of one-day-old postnatal rats was aseptically dissected out, and the meninges and blood vessels were carefully removed. Following cutting in a medium containing 20% horse serum, the suspension was filtered through a […] and transferred as a single cell suspension to culture dishes, using 5.0 mL of medium per dish. The cultures were incubated at 37 °C in an atmosphere containing 5% CO2. The culture medium consisted of Minimum Essential Medium Eagle, supplemented with L-glutamine, amino acids, vitamins, penicillin, gentamicin, sodium bicarbonate and 20% heat-inactivated horse serum. The medium was changed twice a week. After 1 week, the concentration of horse serum was reduced to 10%. After sixteen days in culture, cells were treated with 1 μg/mL of lipopolysaccharide (LPS). After six hours, different concentrations (1.0 μg/mL, 2.5 μg/mL and 5.0 μg/mL) of Compounds 1–4 and 6 were added to each well, and plates were incubated for 72 h at 37 °C in an atmosphere containing 5% CO2. Positive controls were treated only with LPS, while negative controls were treated with complete medium. After 72 h of incubation, cells were counted, and 2.5 mL of the supernatants were collected from each well and frozen at −40 °C for cytokine analyses. All experiments were carried out twice.
(§2) The cytotoxicity of the compounds was measured by the colorimetric methyl thiazol tetrazolium (MTT) assay and scored as a percentage of the absorbance reduction of treated cultures versus untreated control cultures. Primary microglial cell cultures were seeded into 96-well microplates at 10^4 cells per well and allowed to grow for 24 h. The initial concentration of Compounds 1–4 and 6 was 100 μg/mL in DMSO. The compounds were serially diluted in complete culture medium with two-fold dilutions (100, 50, 25, 12.5, 6.25, 3.12 and 1.56 μg/mL for in vitro cytotoxicity; 12.5, 6.25, 3.12, 1.56, 0.78 and 0.39 μg/mL for cytokine release). Different concentrations of the compounds were added to each well, and Tamoxifen was used as a positive control, with concentrations ranging from 50 to 1.56 μg/mL. Plates were incubated at 37 °C for 72 h under 5% CO2 atmosphere. Then, the 50 μL of MTT-PBS solution in culture medium were added to each well. The plates were further incubated for 4 h under the same conditions. The medium was then removed and replaced with 200 μL of DMSO to solubilize the MTT formazan product. The solutions were shaken for 20 min, and the absorbance was measured at 570 nm. […] Each value represents the mean of triplicate determinations. The IC50 values were calculated from the compound concentration-response curves.

TNF-α = TNF-α release in supernatants of LPS-treated primary microglial cells (ELISA); details: 72 h; for TNF-α release: LPS-treated; for IC50: Rattus norvegicus, inhibition of LPS-induced cytokine release, read-out: TNF-α IC50
Procedure: as §1, with “After six hours, different concentrations (1.0 μg/mL, 2.5 μg/mL and 5.0 μg/mL) of Compounds 1–4 and 6 were added to each well, and plates were incubated for 72 h at 37 °C in an atmosphere containing 5% CO2.” left out
(§3) The supernatants obtained from cell cultures were analyzed for TNF-α, IL-1β, IL-4, IL-6, IL-8, IL-10 and IL-18 using commercially available ELISA kits following the manufacturers’ instructions. All samples were assayed in duplicate, and equivocal results were repeated. The cytokine concentration was calculated from a standard curve of the corresponding recombinant cytokine.
as §2, with “The initial concentration of Compounds 1–4 and 6 was 100 μg/mL in DMSO.” left out

IL-6 = IL-6 release in supernatants of LPS-treated primary microglial cells (ELISA); details: 72 h; for IL-6 release: LPS-treated; for IC50: Rattus norvegicus, inhibition of LPS-induced cytokine release, read-out: IL-6 IC50
Procedure: as §1, with “After six hours, different concentrations (1.0 μg/mL, 2.5 μg/mL and 5.0 μg/mL) of Compounds 1–4 and 6 were added to each well, and plates were incubated for 72 h at 37 °C in an atmosphere containing 5% CO2.” left out
as §3
as §2, with “The initial concentration of Compounds 1–4 and 6 was 100 μg/mL in DMSO.” left out

IL-4 = IL-4 release in supernatants of LPS-treated primary microglial cells (ELISA); details: 72 h; for IL-4 release: LPS-treated; for IC50: Rattus norvegicus, inhibition of LPS-induced cytokine release, read-out: IL-4 IC50
Procedure: as §1, with “After six hours, different concentrations (1.0 μg/mL, 2.5 μg/mL and 5.0 μg/mL) of Compounds 1–4 and 6 were added to each well, and plates were incubated for 72 h at 37 °C in an atmosphere containing 5% CO2.” left out
as §3
as §2, with “[…] […]” for “The initial concentration of Compounds 1–4 and 6 was 100 μg/mL in DMSO. The compounds were serially diluted in complete culture medium with two-fold dilutions (100, 50, 25, 12.5, 6.25, 3.12 and 1.56 μg/mL for in vitro cytotoxicity; 12.5, 6.25, 3.12, 1.56, 0.78 and 0.39 μg/mL for cytokine release).”

Row | Structure (SMILES) | IC50 at 72 h [1] | TNF-α release (TNF-α; C1: 1.0 μg/mL) | TNF-α release (TNF-α; C2: 2.5 μg/mL) | TNF-α release (TNF-α; C3: 5.0 μg/mL) | IC50 (TNF-α) | IL-6 release (IL-6; C1: 1.0 μg/mL) | IL-6 release (IL-6; C2: 2.5 μg/mL) | IL-6 release (IL-6; C3: 5.0 μg/mL) | IC50 (IL-6) | IL-4 release (IL-4; C1: 1.0 μg/mL) | IL-4 release (IL-4; C2: 2.5 μg/mL) | IL-4 release (IL-4; C3: 5.0 μg/mL) | IC50 (IL-4)
1 | C=C(C)[C@@H]1CC(=O)[C@H]2[C@H](C1)[C@@H]1C(=O)O[C@@H]3C[C@@]4(C)O[C@H]2C(=O)[C@@H]4[C@H]13 [Compound 6, ineleganolide] | > 100 µg/mL | 31.2 ± 2.9 pg/mL | 30.6 ± 2.6 pg/mL | 32.3 ± 3.2 pg/mL | > 12.5 µg/mL | 13.2 ± 0.2 pg/mL | 12.1 ± 0.9 pg/mL | 11.8 ± 1.2 pg/mL | > 12.5 µg/mL | 1.8 ± 0.6 pg/mL | 1.9 ± 0.6 pg/mL | 1.9 ± 0.9 pg/mL | > 12.5 µg/mL
2 | C=C(C)[C@@H]1C/C=C2\C(=O)O[C@@H](C[C@]3(C)CC(=O)[C@@H](CC(=O)C1)O3)[C@@H]2O [Compound 2, sinuleptolide] | > 100 µg/mL | 34.1 ± 9.1 pg/mL | 12.3 ± 3.4 pg/mL | 9.8 ± 3.3 pg/mL | 1.7 µg/mL (≈ 4.88 µM) | 12.1 ± 0.9 pg/mL | 7.8 ± 1.4 pg/mL | 8.5 ± 1.3 pg/mL | 2.2 µg/mL (≈ 6.31 µM) | 2.1 ± 0.9 pg/mL | 15.5 ± 2.3 pg/mL | 18.4 ± 1.8 pg/mL | 0.5 µg/mL (≈ 1.44 µM)
3 | C=C(C)[C@@H]1C/C=C2\C(=O)O[C@@H](C[C@]3(C)CC(=O)[C@H](CC(=O)C1)O3)[C@@H]2O [Compound 1, 5-epi-sinuleptolide] | > 100 µg/mL | 33.5 ± 11.2 pg/mL | 31.2 ± 9.2 pg/mL | 33.6 ± 11.1 pg/mL | > 12.5 µg/mL | 14.2 ± 1.8 pg/mL | 11.7 ± 1.2 pg/mL | 13.5 ± 1.4 pg/mL | > 12.5 µg/mL | 1.9 ± 0.9 pg/mL | 2.1 ± 0.8 pg/mL | 1.9 ± 0.4 pg/mL | > 12.5 µg/mL
4 | C=C(C)C1CCC23OC2C(CC2(C)CC(=O)C(CC(=O)C1)O2)OC3=O (stereo not shown) [Compound 3, scabrolide D] | > 100 µg/mL | 33.6 ± 11.2 pg/mL | 24.5 ± 6.9 pg/mL | 35.4 ± 12.4 pg/mL | > 12.5 µg/mL | 12.9 ± 1.1 pg/mL | 11.5 ± 1.3 pg/mL | 13.2 ± 1.2 pg/mL | > 12.5 µg/mL | 1.5 ± 0.9 pg/mL | 1.6 ± 0.8 pg/mL | 1.7 ± 0.5 pg/mL | > 12.5 µg/mL
